ChEMBL document CHEMBL5244272 (Eur J Med Chem, 2021)

Assays:
Format in all cases: functional, organism-based
Plasmodium falciparum [1] = assay: Antimalarial activity against Plasmodium falciparum NF54
Plasmodium falciparum [2] = assay: Antimalarial activity against Plasmodium falciparum 3D7
Plasmodium falciparum [3] = assay: Antimalarial activity against Plasmodium falciparum K1; conditions: for EC50: read-out: EC50
Plasmodium falciparum [4] = assay: Antimalarial activity against Plasmodium falciparum W2
Plasmodium falciparum [5] = assay: Antimalarial activity against Plasmodium falciparum D10
Plasmodium falciparum [6] = assay: Antimalarial activity against Plasmodium falciparum D6

SMILES	IC50 (Plasmodium falciparum [4])	IC50 (Plasmodium falciparum [6])	also measured
CC1=C(C(O)(c2ccccc2)c2ccccc2)O[C@@H]2O[C@]3(C)CC[C@H]4[C@H](C)CC[C@@H]1[C@@]24OO3			IC50 (Plasmodium falciparum [1]): 4.5 nM
COC(=O)Nc1nc2cc(C(=O)c3ccccc3)ccc2n1C(=O)O[C@H]1O[C@@H]2O[C@]3(C)CC[C@H]4[C@H](C)CC[C@@H]([C@H]1C)[C@@]24OO3			IC50 (Plasmodium falciparum [2]): 6.86 nM
CC1=C(C(=O)c2ccccc2)O[C@@H]2O[C@]3(C)CC[C@H]4[C@H](C)CC[C@@H]1[C@@]24OO3			IC50 (Plasmodium falciparum [1]): 4.6 nM
COC(=O)CC[C@@H](C)[C@H]1CCC2C3CC[C@@H]4CC5(CC[C@]4(C)C3C[C@H](OC(C)=O)[C@@]21C)OOC(C)(C)OO5 (some centres not stated)			IC50 (Plasmodium falciparum [3]): 3 nM
CCN(CC)Cc1ccc(C(C)O[C@H]2O[C@@H]3O[C@]4(C)CC[C@H]5[C@H](C)CC[C@@H]([C@H]2C)[C@@]35OO4)cc1O (some centres not stated)			IC50 (Plasmodium falciparum [1]): 0.36 ng/mL; IC50 (Plasmodium falciparum [3]): 0.18 ng/mL
CC1(C)OOC2(OCC34CC5CC(CC(C5)C3)C4)CCCC1C2 (configuration not stated)	270 nM		IC50 (Plasmodium falciparum [5]): 330 nM
C=C(c1ccc(F)cc1F)C1COC2(OO1)C1CC3CC(C1)CC2C3 (configuration not stated)			IC50 (Plasmodium falciparum [2]): 25.7 nM
CCCCNC(=O)CCC(C)[C@H]1CCC2C3C(C[C@H](OC(C)=O)[C@@]21C)[C@@]1(C)CC[C@]2(C[C@@H]1C[C@H]3OC(C)=O)OO[C@@]1(CC[C@]3(C)C4C[C@H](OC(C)=O)[C@@]5(C)C(CC[C@@H]5C(C)CCC(=O)NCCCC)C4[C@H](OC(C)=O)C[C@H]3C1)OO2 (some centres not stated)		20.1 nM	
C[C@@H]1CC[C@H]2[C@H](C[C@@]3(CCCCCC[C@]4(C[C@@H]5C(=O)O[C@@H]6O[C@]7(C)CC[C@H]8[C@H](C)CC[C@@H]5[C@@]68OO7)C(=O)O[C@@H]5O[C@]6(C)CC[C@H]7[C@H](C)CC[C@@H]4[C@@]57OO6)C(=O)O[C@@H]4O[C@]5(C)CC[C@H]6[C@H](C)CC[C@@H]3[C@@]46OO5)C(=O)O[C@@H]3O[C@]4(C)CC[C@@H]1[C@]32OO4			EC50 (Plasmodium falciparum [3]): 20 nM
CS(=O)(=O)N1CCN(CCOc2ccc(C3CCC4(CC3)OOC3(OO4)C4CC5CC(C4)CC3C5)cc2)CC1 (configuration not stated)			IC50 (Plasmodium falciparum [2]): 3.5 nM
CC1(C)OOC2(OCc3ccccc3)CCCC1C2 (configuration not stated)	430 nM		IC50 (Plasmodium falciparum [5]): 800 nM
COC(=O)CC[C@@H](C)[C@H]1CCC2C3CC[C@@H]4CC5(CC[C@]4(C)C3C[C@H](OC(C)=O)[C@@]21C)OOC(C)(C(F)(F)F)OO5 (some centres not stated)			IC50 (Plasmodium falciparum [3]): 7.6 nM
C[C@H]1[C@H](N2CCN([C@@H]3O[C@H](CO)[C@H](O)[C@H]3O)CC2)O[C@@H]2O[C@]3(C)CC[C@H]4[C@H](C)CC[C@@H]1[C@@]24OO3	0.58 nM		IC50 (Plasmodium falciparum [5]): 0.66 nM
C[C@@H]1CC[C@H]2[C@@H](C)C(=O)N(S(=O)(=O)c3ccc4ccccc4c3)[C@@H]3O[C@]4(C)CC[C@@H]1[C@@]23OO4			IC50 (Plasmodium falciparum [2]): 2.8 ng/mL; IC50 (Plasmodium falciparum [3]): 0.2 ng/mL
CC1(C)OOC2(OCCc3ccccc3)CCCC1C2 (configuration not stated)	250 nM		IC50 (Plasmodium falciparum [5]): 670 nM
C[C@@H]1CCCCC12OOC1(CCCC[C@@H]1C)OO2 (some centres not stated) [WR-148999]	7.3 nM	8.4 nM	
C[C@@H]1CC[C@H]2[C@@H](C)C(=O)N(C(=O)c3cccc([N+](=O)[O-])c3)[C@@H]3O[C@]4(C)CC[C@@H]1[C@@]23OO4			IC50 (Plasmodium falciparum [2]): 0.46 ng/mL; IC50 (Plasmodium falciparum [3]): 0.6 ng/mL
CCCC[C@H]1O[C@@H]2O[C@]3(C)CC[C@H]4[C@H](C)CC[C@@H]([C@H]1C)[C@@]24OO3	0.16 ng/mL	0.41 ng/mL	
C[C@@H]1CCC[C@@H](C)C12OOC1(OO2)[C@@H](C)CCC[C@@H]1C	> 1000 nM	> 1000 nM	
C[C@@H]1CC[C@H]2[C@@H](C)C(=O)N(C(=O)Cc3ccc([N+](=O)[O-])cc3)[C@@H]3O[C@]4(C)CC[C@@H]1[C@@]23OO4			IC50 (Plasmodium falciparum [2]): 0.6 ng/mL; IC50 (Plasmodium falciparum [3]): 0.4 ng/mL
C[C@H]1[C@@H](OCc2ccc(C(=O)N(CCNc3ccnc4cc(Cl)ccc34)CC(=O)NC(C)(C)C)cc2)O[C@@H]2O[C@]3(C)CC[C@H]4[C@H](C)CC[C@@H]1[C@@]24OO3			IC50 (Plasmodium falciparum [3]): 19 nM; IC50 (Plasmodium falciparum [5]): 27 nM
C[C@H]1[C@H](N2CCN([C@@H]3O[C@@H](C)[C@H](O)[C@@H](O)[C@H]3O)CC2)O[C@@H]2O[C@]3(C)CC[C@H]4[C@H](C)CC[C@@H]1[C@@]24OO3	0.74 nM		IC50 (Plasmodium falciparum [5]): 0.74 nM
CC1(C)OOC2(OCCC34CC5CC(CC(C5)C3)C4)CCCC1C2 (configuration not stated)	440 nM		IC50 (Plasmodium falciparum [5]): 580 nM
C[C@@H]1CC[C@H]2[C@H](C[C@@]3(CCCCCCCC4C(=O)O[C@@H]5O[C@]6(C)CC[C@H]7[C@H](C)CC[C@@H]4[C@@]57OO6)C(=O)O[C@@H]4O[C@]5(C)CC[C@H]6[C@H](C)CC[C@@H]3[C@@]46OO5)C(=O)O[C@@H]3O[C@]4(C)CC[C@@H]1[C@]32OO4 (some centres not stated)			EC50 (Plasmodium falciparum [3]): 3.1 nM
C[C@H]1[C@@H](Nc2cccc(F)c2)O[C@@H]2O[C@]3(C)CC[C@H]4[C@H](C)CC[C@@H]1[C@@]24OO3	< 0.16 ng/mL	< 0.16 ng/mL	
C[C@@H]1CC[C@H]2[C@@H](CCCc3ccc(Cl)cc3)C(=O)O[C@@H]3O[C@]4(C)CC[C@@H]1[C@]32OO4	2.6 ng/mL	1.9 ng/mL	
C[C@H]1[C@@H](O[C@H](CCC(=O)O)c2ccc(Cl)cc2)O[C@@H]2O[C@]3(C)CC[C@H]4[C@H](C)CC[C@@H]1[C@@]24OO3	0.357 ng/mL	0.38 ng/mL	
C[C@@H]1CC[C@H]2[C@@H](CCCc3cc(F)cc(F)c3)C(=O)O[C@@H]3O[C@]4(C)CC[C@@H]1[C@]32OO4	6.5 ng/mL	0.82 ng/mL	IC50 (Plasmodium falciparum [3]): 3.2 ng/mL

SMILES	IC50 (Plasmodium falciparum [4])	IC50 (Plasmodium falciparum [6])	also measured
C[C@H]1[C@@H](OCc2ccc(C(=O)O)cc2)O[C@@H]2O[C@@]3(C)CC[C@H]4[C@H](C)CC[C@@H]1[C@@]24OO3	1.38 ng/mL	4.07 ng/mL	
C[C@H]1[C@H](Nc2ccc(Br)cc2)O[C@@H]2O[C@]3(C)CC[C@H]4[C@H](C)CC[C@@H]1[C@@]24OO3	0.23 ng/mL	0.23 ng/mL	
CS(=O)(=O)N1CCN(CCCOc2ccc(C3CCC4(CC3)OOC3(OO4)C4CC5CC(C4)CC3C5)cc2)CC1 (configuration not stated)			IC50 (Plasmodium falciparum [2]): 3.7 nM
COC(=O)CC(C)CO[C@H]1O[C@@H]2O[C@]3(C)CC[C@H]4[C@H](C)CC[C@@H]([C@H]1C)[C@@]24OO3 (some centres not stated)	0.48 ng/mL	1.91 ng/mL	
C[C@@H]1CC[C@H]2[C@@H](CCCc3cc(C(F)(F)F)cc(C(F)(F)F)c3)C(=O)O[C@@H]3O[C@]4(C)CC[C@@H]1[C@]32OO4	7.11 ng/mL	0.78 ng/mL	IC50 (Plasmodium falciparum [3]): 4.06 ng/mL
C[C@@H]1CC[C@H]2[C@@H](C)C(=O)N(S(=O)(=O)c3ccc(C(F)(F)F)cc3)[C@@H]3O[C@]4(C)CC[C@@H]1[C@@]23OO4	2.39 nM		IC50 (Plasmodium falciparum [1]): 2.04 nM; IC50 (Plasmodium falciparum [3]): 3.15 nM
CC1(C)CCCCC12OOC1(CCCCC1(C)C)OO2 (configuration not stated)	> 1000 nM	> 1000 nM	
C[C@H]1[C@@H](O[C@@H]2O[C@H](CO)[C@@H](O)[C@H](O)[C@H]2O)O[C@@H]2O[C@]3(C)CC[C@H]4[C@H](C)CC[C@@H]1[C@@]24OO3	0.19 ng/mL	2.48 ng/mL	
CCCCC(=O)C1=C(C)[C@@H]2CC[C@@H](C)[C@@H]3CC[C@]4(C)OO[C@@]23[C@H](O1)O4			IC50 (Plasmodium falciparum [1]): 4.3 nM
Cc1ccccc1COC12CCCC(C1)C(C)(C)OO2 (configuration not stated)	630 nM		IC50 (Plasmodium falciparum [5]): 740 nM
c1cc(C2CCC3(CC2)OOC2(OO3)C3CC4CC(C3)CC2C4)ccc1OCCNC1CCOCC1 (configuration not stated)			IC50 (Plasmodium falciparum [2]): 0.5 nM
CC(C)OC[C@H]1O[C@@H](O[C@H]2O[C@@H]3O[C@]4(C)CC[C@H]5[C@H](C)CC[C@@H]([C@H]2C)[C@@]35OO4)[C@H](O)[C@@H](O)[C@@H]1OC(C)C	0.31 ng/mL	1.43 ng/mL	
C[C@@H]1CC[C@H]2[C@@H](CCCc3ccccc3)C(=O)O[C@@H]3O[C@]4(C)CC[C@@H]1[C@]32OO4	1.35 ng/mL	0.9 ng/mL	
C[C@@H]1CC[C@H]2[C@@H](C)C(=O)N(S(=O)(=O)c3cccc([N+](=O)[O-])c3)[C@@H]3O[C@]4(C)CC[C@@H]1[C@@]23OO4			IC50 (Plasmodium falciparum [2]): 2.1 ng/mL; IC50 (Plasmodium falciparum [3]): 2.2 ng/mL
C[C@@H]1CC[C@H]2[C@H](C[C@@]3(CCCCCCC[C@]4(C[C@@H]5C(=O)O[C@@H]6O[C@]7(C)CC[C@H]8[C@H](C)CC[C@@H]5[C@@]68OO7)C(=O)O[C@@H]5O[C@]6(C)CC[C@H]7[C@H](C)CC[C@@H]4[C@@]57OO6)C(=O)O[C@@H]4O[C@]5(C)CC[C@H]6[C@H](C)CC[C@@H]3[C@@]46OO5)C(=O)O[C@@H]3O[C@]4(C)CC[C@@H]1[C@]32OO4			EC50 (Plasmodium falciparum [3]): 5.8 nM
C[C@@H]1CC[C@H]2[C@@H](C)C(=O)N(S(=O)(=O)c3cccc4cccnc34)[C@@H]3O[C@]4(C)CC[C@@H]1[C@@]23OO4			IC50 (Plasmodium falciparum [2]): 1.9 ng/mL; IC50 (Plasmodium falciparum [3]): 2 ng/mL
CCCCCCCC[C@H]1CCC2C3CC[C@H]4C[C@]5(CC[C@]4(C)C3CC[C@@]21C)OO[C@]1(CC[C@@H]2CCC3C4CC[C@H](CCCCCCCC)[C@@]4(C)CCC3[C@@]2(C)C1)OO5 (some centres not stated)		155 nM	
C[C@H]1[C@H](NS(N)(=O)=O)O[C@@H]2O[C@]3(C)CC[C@H]4[C@H](C)CC[C@@H]1[C@@]24OO3	2.04 nM		IC50 (Plasmodium falciparum [1]): 3.1 nM; IC50 (Plasmodium falciparum [3]): 1.79 nM
C[C@H]1[C@H](Nc2ccccc2)O[C@@H]2O[C@]3(C)CC[C@H]4[C@H](C)CC[C@@H]1[C@@]24OO3	0.66 ng/mL	0.66 ng/mL	
C[C@H]1[C@H](N2CCNCC2)O[C@@H]2O[C@]3(C)CC[C@H]4[C@H](C)CC[C@@H]1[C@@]24OO3			IC50 (Plasmodium falciparum [1]): 3.2 nM
C[C@@H]1CC[C@H]2[C@@H](C)C(=O)N(C(=O)c3ccc([N+](=O)[O-])cc3)[C@@H]3O[C@]4(C)CC[C@@H]1[C@@]23OO4			IC50 (Plasmodium falciparum [2]): 0.45 ng/mL; IC50 (Plasmodium falciparum [3]): 0.6 ng/mL
CCCCNC(=O)CCC(C)[C@H]1CCC2C3C(C[C@H](OC(C)=O)[C@@]21C)[C@@]1(C)CC[C@]2(C[C@@H]1C[C@H]3OC(C)=O)OO[C@@]1(CC[C@@H]3C[C@@H](OC(C)=O)C4C5CC[C@H](C(C)CCC(=O)NCCCC)[C@@]5(C)[C@@H](OC(C)=O)CC4[C@@]3(C)C1)OO2 (some centres not stated)		9.29 nM	
C[C@H]1[C@@H](O[C@H](CCC(=O)O)c2ccc(Br)cc2)O[C@@H]2O[C@]3(C)CC[C@H]4[C@H](C)CC[C@@H]1[C@@]24OO3	0.313 ng/mL	0.405 ng/mL	
CC1(C)OOC2(OCCCC34CC5CC(CC(C5)C3)C4)CCCC1C2 (configuration not stated)	160 nM		IC50 (Plasmodium falciparum [5]): 240 nM
C[C@H]1[C@H](N2CCN([C@@H]3O[C@H](CO)[C@@H](O)[C@H](O)[C@H]3O)CC2)O[C@@H]2O[C@]3(C)CC[C@H]4[C@H](C)CC[C@@H]1[C@@]24OO3	0.71 nM		IC50 (Plasmodium falciparum [5]): 0.87 nM
CCCCCCCCS(=O)(=O)N1C(=O)[C@H](C)[C@@H]2CC[C@@H](C)[C@@H]3CC[C@]4(C)OO[C@]32[C@H]1O4			IC50 (Plasmodium falciparum [2]): 2.1 ng/mL; IC50 (Plasmodium falciparum [3]): 1.1 ng/mL
C[C@H]1[C@H](Nc2ccc(I)cc2)O[C@@H]2O[C@]3(C)CC[C@H]4[C@H](C)CC[C@@H]1[C@@]24OO3	0.33 ng/mL	0.33 ng/mL	
